Experimental data from ChEMBL document CHEMBL5380794, “Discovery of a Potent and Selective STAT5 PROTAC Degrader with Strong Antitumor Activity In Vivo in Acute Myeloid Leukemia” (J Med Chem, 2023).
The source made the active and inactive calls. The rule behind the calls is not given here.

What was measured:
[1] = molecular target: T1, Signal transducer and activator of transcription 5A (Homo sapiens) (UniProt P42229); test: Induction of STAT5 degradation in human SKNO-1 cells assessed as maximal degradation at 0.05 to 5 uM measured for 18 hrs by Western blot analysis relative to control; assay type: cell-based; conditions: dose 0.05-5 µM
T1 sequence (whole entry): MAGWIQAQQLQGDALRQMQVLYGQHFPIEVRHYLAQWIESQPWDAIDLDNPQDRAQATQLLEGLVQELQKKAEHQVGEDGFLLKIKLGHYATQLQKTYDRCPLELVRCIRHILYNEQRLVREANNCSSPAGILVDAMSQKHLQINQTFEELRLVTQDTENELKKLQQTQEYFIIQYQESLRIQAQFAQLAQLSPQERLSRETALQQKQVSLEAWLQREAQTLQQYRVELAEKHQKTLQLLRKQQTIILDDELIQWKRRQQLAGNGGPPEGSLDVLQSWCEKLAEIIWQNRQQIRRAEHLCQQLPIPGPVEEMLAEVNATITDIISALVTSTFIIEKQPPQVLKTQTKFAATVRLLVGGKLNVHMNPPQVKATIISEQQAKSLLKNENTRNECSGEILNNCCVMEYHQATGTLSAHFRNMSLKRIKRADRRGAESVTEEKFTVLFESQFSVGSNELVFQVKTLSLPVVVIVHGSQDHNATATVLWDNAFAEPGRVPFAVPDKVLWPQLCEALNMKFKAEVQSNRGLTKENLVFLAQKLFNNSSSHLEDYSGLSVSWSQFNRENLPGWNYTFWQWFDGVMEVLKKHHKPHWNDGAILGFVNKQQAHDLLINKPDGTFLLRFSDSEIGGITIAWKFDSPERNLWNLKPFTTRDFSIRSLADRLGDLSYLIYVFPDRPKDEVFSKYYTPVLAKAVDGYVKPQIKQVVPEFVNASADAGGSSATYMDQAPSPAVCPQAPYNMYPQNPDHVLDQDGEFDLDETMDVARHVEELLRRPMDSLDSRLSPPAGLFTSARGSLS

[2] = molecular target: T2, Signal transducer and activator of transcription 6 (Homo sapiens, UniProt P42226); test: Induction of STAT6 degradation in human SKNO-1 cells measured for 18 hrs by Western blot analysis; assay type: cell-based; conditions: read-out: DC50
T2 sequence (P42226 whole entry): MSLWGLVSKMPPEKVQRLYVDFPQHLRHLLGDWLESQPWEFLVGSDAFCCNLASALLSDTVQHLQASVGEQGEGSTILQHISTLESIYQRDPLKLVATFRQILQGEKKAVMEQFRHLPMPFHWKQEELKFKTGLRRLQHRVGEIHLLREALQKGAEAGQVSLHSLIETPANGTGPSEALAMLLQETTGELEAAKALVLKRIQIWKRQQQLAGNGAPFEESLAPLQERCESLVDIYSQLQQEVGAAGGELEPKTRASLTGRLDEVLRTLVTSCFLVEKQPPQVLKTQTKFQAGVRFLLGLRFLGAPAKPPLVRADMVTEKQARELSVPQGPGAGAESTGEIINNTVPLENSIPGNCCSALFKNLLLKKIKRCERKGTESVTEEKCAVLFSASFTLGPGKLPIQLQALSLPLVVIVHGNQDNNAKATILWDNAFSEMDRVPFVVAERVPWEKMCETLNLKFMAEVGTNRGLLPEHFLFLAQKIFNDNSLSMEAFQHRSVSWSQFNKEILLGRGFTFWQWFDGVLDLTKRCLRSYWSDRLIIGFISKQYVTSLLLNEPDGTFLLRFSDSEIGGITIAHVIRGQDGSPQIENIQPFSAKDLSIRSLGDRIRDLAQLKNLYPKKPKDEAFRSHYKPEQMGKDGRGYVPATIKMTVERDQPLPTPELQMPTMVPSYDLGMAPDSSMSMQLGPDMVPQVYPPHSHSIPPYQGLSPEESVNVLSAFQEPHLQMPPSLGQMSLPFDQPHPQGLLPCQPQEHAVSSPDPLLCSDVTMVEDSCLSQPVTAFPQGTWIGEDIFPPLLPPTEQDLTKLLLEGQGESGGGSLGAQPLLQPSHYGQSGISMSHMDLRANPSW

[3] = organism: Homo sapiens; test: Selectivity ratio of DC50 for induction of STAT5 degradation in human SKNO-1 cells to DC50 for STAT6 degradation in human SKNO-1 cells; assay type: cell-based
[4] = molecular target: T3, Signal transducer and activator of transcription 5A (Homo sapiens, UniProt P42229); test: Induction of STAT5 degradation in human SKNO-1 cells measured for 18 hrs by Western blot analysis; assay type: cell-based
T3 sequence (P42229 whole entry): T1 sequence (whole entry)

[5] = molecular target: T3, Signal transducer and activator of transcription 5A; test: Binding affinity to N-terminal 6his-tagged human STAT5A (136 to 705 residues) expressed in Escherichia coli BL21-DE3 rosetta cells assessed as inhibition constant by FP assay
[6] = test system: MV4-11; test: Effect on STAT2 level in human MV4-11 cells upto 5 uM measured for 18 hrs by Western blot analysis; assay type: functional, cell-based
[7] = test system: MV4-11; test: Effect on STAT1 level in human MV4-11 cells upto 5 uM measured for 18 hrs by Western blot analysis; assay type: functional, cell-based
[8] = molecular target: T1, Signal transducer and activator of transcription 5A (Homo sapiens); test: Inhibition of STAT5 phosphorylation in human MV4-11 cells assessed as reduction in STAT5 level at 1 uM measured for 6 hrs by Western blot analysis; assay type: cell-based
[9] = test system: MV4-11; test: Effect on STAT3 level in human MV4-11 cells upto 5 uM measured for 18 hrs by Western blot analysis; assay type: functional, cell-based
[10] = molecular target: T1, Signal transducer and activator of transcription 5A (Homo sapiens); test: Inhibition of STAT5 phosphorylation in human MV4-11 cells assessed as reduction in […] phosphorylation at Y694 residue at 0.2 uM measured for 6 hrs by Western blot analysis; assay type: cell-based
[11] = test system: SKNO-1; test: Effect on STAT2 level in human SKNO-1 cells upto 5 uM measured for 18 hrs by Western blot analysis; assay type: functional, cell-based
[12] = test system: MV4-11; test: Effect on STAT6 level in human MV4-11 cells upto 5 uM measured for 18 hrs by Western blot analysis; assay type: functional, cell-based
[13] = test system: SKNO-1; test: Effect on STAT3 level in human SKNO-1 cells upto 5 uM measured for 18 hrs by Western blot analysis; assay type: functional, cell-based
[14] = test system: SKNO-1; test: Effect on STAT1 level in human SKNO-1 cells upto 5 uM measured for 18 hrs by Western blot analysis; assay type: functional, cell-based
[15] = test system: SKNO-1; test: Effect on STAT4 level in human SKNO-1 cells upto 5 uM measured for 18 hrs by Western blot analysis; assay type: functional, cell-based
[16] = test system: SKNO-1; test: Effect on STAT6 level in human SKNO-1 cells upto 5 uM measured for 18 hrs by Western blot analysis; assay type: functional, cell-based
[17] = molecular target: T4, Signal transducer and activator of transcription 5B (Homo sapiens, UniProt P51692); test: Binding affinity to STAT5B (unknown origin) assessed as inhibition constant by FP assay
T4 sequence (P51692 whole entry): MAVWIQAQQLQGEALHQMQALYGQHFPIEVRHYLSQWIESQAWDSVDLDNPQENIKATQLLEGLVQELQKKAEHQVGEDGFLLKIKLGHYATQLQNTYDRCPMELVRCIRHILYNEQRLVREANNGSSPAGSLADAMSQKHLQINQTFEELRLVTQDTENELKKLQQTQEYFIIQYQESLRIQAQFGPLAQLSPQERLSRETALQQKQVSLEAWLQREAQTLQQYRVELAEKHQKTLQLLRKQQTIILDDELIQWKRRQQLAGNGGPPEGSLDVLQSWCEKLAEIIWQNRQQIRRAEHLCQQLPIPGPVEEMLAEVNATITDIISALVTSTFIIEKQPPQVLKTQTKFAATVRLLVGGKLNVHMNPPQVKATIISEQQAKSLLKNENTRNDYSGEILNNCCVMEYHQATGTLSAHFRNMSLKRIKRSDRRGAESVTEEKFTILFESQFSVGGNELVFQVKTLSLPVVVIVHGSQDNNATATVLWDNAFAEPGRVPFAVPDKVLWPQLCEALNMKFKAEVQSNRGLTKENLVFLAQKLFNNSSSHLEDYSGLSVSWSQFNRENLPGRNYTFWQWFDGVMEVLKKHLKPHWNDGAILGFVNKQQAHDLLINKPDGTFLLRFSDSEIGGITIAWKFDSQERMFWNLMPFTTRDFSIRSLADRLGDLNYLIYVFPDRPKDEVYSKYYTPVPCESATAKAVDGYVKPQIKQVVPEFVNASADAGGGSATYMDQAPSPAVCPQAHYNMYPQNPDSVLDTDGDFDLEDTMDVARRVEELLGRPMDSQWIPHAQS

[18] = molecular target: Protein cereblon (Homo sapiens, UniProt Q96SW2); test: Binding affinity to GST-tagged wild type human CRBN assessed as inhibition constant by TR-FRET assay
Chain of Protein cereblon (Q96SW2 whole entry): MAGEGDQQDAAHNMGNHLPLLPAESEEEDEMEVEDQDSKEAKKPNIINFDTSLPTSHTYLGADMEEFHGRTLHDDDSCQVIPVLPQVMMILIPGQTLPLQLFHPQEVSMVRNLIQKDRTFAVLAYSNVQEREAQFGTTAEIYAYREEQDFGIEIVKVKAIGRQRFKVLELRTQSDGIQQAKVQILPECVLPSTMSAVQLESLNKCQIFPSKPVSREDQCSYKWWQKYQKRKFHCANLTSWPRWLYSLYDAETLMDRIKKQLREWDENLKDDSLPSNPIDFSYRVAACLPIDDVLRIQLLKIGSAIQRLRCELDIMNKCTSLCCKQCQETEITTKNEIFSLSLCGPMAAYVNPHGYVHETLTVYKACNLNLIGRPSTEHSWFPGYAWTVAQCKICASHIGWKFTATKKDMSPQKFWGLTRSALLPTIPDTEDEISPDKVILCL

SMILES: CC(C)(C)[C@H](NC(=O)c1cc2cc(C(F)(F)P(=O)(O)O)ccc2s1)C(=O)N1CCC[C@H]1C(=O)N(CCC(=O)NCCCC#Cc1cccc2c1CN(C1CCC(=O)NC1=O)C2=O)c1ccc(Br)cc1 (some centres undefined)
- Emax [1]: > 95%
- DC50 [2]: > 5 µM
- Ratio [3]: > 20
- DC50 [4]: 0.23 µM

SMILES: CN(C)C(=O)CCN(C(=O)[C@@H]1CCCN1C(=O)[C@@H](NC(=O)c1cc2cc(C(F)(F)P(=O)(O)O)ccc2s1)C(C)(C)C)c1ccc(-c2nccs2)cc1
- Ki [5]: 1 µM
- Activity [6]: inactive
- Activity [7]: inactive
- inhibition [8]: inactive
- Activity [9]: inactive
- inhibition [10]: inactive
- Activity [11]: inactive
- Activity [12]: inactive
- Activity [13]: inactive
- Activity [14]: inactive
- Activity [15]: inactive
- Activity [16]: inactive
- Ki [17]: 1 µM

SMILES: CN(CCCC#Cc1cccc2c1CN(C1CCC(=O)N(C)C1=O)C2=O)C(=O)CCN(C(=O)[C@@H]1CCCN1C(=O)[C@@H](NC(=O)c1cc2cc(C(F)(F)P(=O)(O)O)ccc2s1)C(C)(C)C)c1ccc(-c2nccs2)cc1 (some centres undefined)
- Ki [18]: > 5 µM
- Activity [6]: inactive
- Activity [7]: inactive
- inhibition [8]: inactive
- Activity [9]: inactive
- inhibition [10]: inactive
- Activity [11]: inactive
- Activity [12]: inactive
- Activity [13]: inactive
- Activity [14]: inactive
- Activity [15]: inactive
- Activity [16]: inactive
